# Results taken from PMC11696576, “Next generation thiazolyl ketone inhibitors of cytosolic phospholipase A2 α for targeted cancer therapy” (Nature Communications, 2025).
# Values joined by “and” are separate entries in the source; they are usually repeats but may differ in a detail not shown here. Equal entries are not always repeated. Where two headings read alike, the source gives them in different places.
# Test system: panel of 66 cancer cell lines
# Test: cancer cell line screen, proliferation assay (ATPlite, 72 h)
# Format: cell-based, human
# Conditions: for raw signal, dose-response (Figure S7a): rep1, rep2, listed as AVX420; for IC50: Homo sapiens
# Excerpt: Targeting specific molecular vulnerabilities in cancer is considered a key approach to reducing the adverse effects of chemotherapy. However, the events that govern the susceptibility to suppression of the cPLA2α in cancer remain largely unexplored. We therefore took the approach of screening the antiproliferative activity of AVX420 in a panel of 66 cancer cell lines (hereafter referred to as the cancer cell line screen or CCLS) to allow us to investigate molecular and genetic vulnerabilities to the drug.
# Screening of compound activities in 66 cancer cell lines was carried out at the Netherlands Translation Research Center. Briefly, proliferation assays were performed 72 h after compound addition using ATPlite 1step reagent (Perkin Elmer). IC50s calculated by non-linear regression analysis were used as a measure of compound activity for investigating associations with genetic factors. A complete description of the laboratory and data analysis methods are available in the Supplementary Information file (Supplemental Methods: Cancer Cell Line Screening).
# Cancer cell line screening
# Cell proliferation assays
# All cell lines were from the American Type Culture Collection (ATCC) Manassas, Virginia (US) and maintained under ATCC-recommended protocols and within 9 pas- […]
# DMSO at -80°C until one hour before use. Cells exposed within one hour after thaw-ing of the compound stocks. Final compound concentration range in the assay was 10 […]
# cated by supplier. Compounds were dissolved in 100 % DMSO and stored at room temperature. Final concentration of the reference compounds in the assay was 3.16x10-5 M to 3.16x10-9 M. The final DMSO concentration during incubation was […]
# Cell lines were plated in Advanced RPMI 1640 (Gibco, ref 12633-012) cell culture medium, containing 1% Glutamax solution (Gibco, ref 35050-038), 0.4% Pen Strep solution (Gibco, ref 15140-122) and bovine serum. The cPLA2α inhibitors were tested in 0.5% bovine serum (HyClone, ref SH30072.03) with the exception of769-P, A-204, BT-549, SR, T98G, which were tested in the presence of 1.0% serum and A-704 and LNCaP FGS, which were tested in the in the presence of 10% serum. Reference com-pounds were all tested in the presence of 10% bovine serum.
# Cells were dispensed in a 384-well plate, at a concentration of 200 - 3200 cells per well, depending on the cell line, in 45 μL medium. Plated cells were incubated in a humidified atmosphere of 5% CO2 at 37 °C. After 24 hours, 5 μL of compound dilu-tion was added and plates were further incubated for another 72 hours. After 72 hours, 25 μL of ATPlite 1Step™ (PerkinElmer) solution was added to each well, and subse-quently shaken for 2 minutes. After 10 minutes of incubation in the dark, the lumines-cence was recorded on an Envision multimode reader (PerkinElmer).
# Cell growth control. The cellular doubling times of all cell lines are calculated from the t = 0 hours and t = 72 hours growth signals of the untreated cells. If the doubling time is out of specification (0.5 – 2.0 times deviating from historic average) the assay […]
# IC50s were calculated by non-linear regression using IDBS XLfit 5. The percentage growth after 72h (%-growth) was calculated as follows: 100% x (luminescence t = 72h / luminescence untreated,t=72h). This was fitted to the 10log compound concentration (conc) by a 4-parameter logistics curve: %-growth = bottom + (top – bottom) / (1+ 10(logIC50 – conc)*hill)), where hill is the Hill-coefficient, and bottom and top the asymptotic mini-mum and maximum cell growth that the compound allows in that assay.
# All analysis were performed in the statistical software package R and visualized using GraphPad Prism version 10.0 .0
structure (smiles),measurement,setting,value
CCCCCCCOc1ccc(OCC(=O)c2nc(C(=O)OC)cs2)cc1 [GK420],average panel 10logIC50,"10log of IC50 in nM, panel average",4.17
same,pIC50,"769P, kidney","4,561"
same,pIC50,"786O, kidney","4,867"
same,pIC50,"A172, central_nervous_system","4,692"
same,pIC50,"A204, soft_tissue","4,646"
same,pIC50,"A375, skin","4,764"
same,pIC50,"A388, cervix","4,776"
same,pIC50,"A427, lung","4,923"
same,pIC50,"A498, kidney","4,615"
same,pIC50,"A549, lung","4,624"
same,pIC50,"ACHN, kidney","4,799"
same,pIC50,"AN3CA, endometrium","4,941"
same,pIC50,"AU565, breast","4,836"
same,pIC50,"AsPC1, pancreas","4,597"
same,pIC50,"BT20, breast","4,474"
same,pIC50,"BT549, breast","4,818"
same,pIC50,"BxPC3, pancreas","4,715"
same,pIC50,"CAL27, upper_aerodigestive_tract","4,804"
same,"raw signal, dose-response (Figure S7a)","CCRF-CEM, Log10 M -4",5160 and 4973
same,"raw signal, dose-response (Figure S7a)","CCRF-CEM, Log10 M -4.5",1680 and 1133
same,"raw signal, dose-response (Figure S7a)","CCRF-CEM, Log10 M -6",1223867 and 1721613
same,"raw signal, dose-response (Figure S7a)","CCRF-CEM, Log10 M -6.5",5260280 and 5359267
same,"raw signal, dose-response (Figure S7a)","CCRF-CEM, Log10 M -7",5505373 and 6147053
same,"raw signal, dose-response (Figure S7a)","CCRF-CEM, Log10 M -7.5",5656213 and 5825533
same,"raw signal, dose-response (Figure S7a)","CCRF-CEM, Log10 M -8",5419560 and 5847920
same,pIC50,"COLO829, unknown","4,761"
same,pIC50,"Daoy, central_nervous_system","4,867"
same,pIC50,"DoTc24510, cervix","4,743"
same,pIC50,"HCT15, large_intestine","4,945"
same,pIC50,"HCT116, large_intestine","4,795"
same,IC50,"769-P, read-out: IC50",27.5 µM
same,IC50,"786-0, 786-O, read-out: IC50",13.6 µM
same,IC50,"72 h, panel average, 72 h, read-out: average IC50 in the cancer cell line screen",18.4 µM
same,IC50,"A 172, A-172, read-out: IC50",20.3 µM
same,IC50,"A204, A-204, read-out: IC50",22.6 µM
same,IC50,"A388, read-out: IC50",16.8 µM
same,IC50,"A498, A-498, read-out: IC50",24.3 µM
same,IC50,"A549, A-549, read-out: IC50",23.8 µM
same,IC50,"A704, A704, kidney, read-out: pIC50 (converted)",34 µM
same,IC50,"A704, A-704, read-out: IC50",> 100 µM
same,IC50,"A-375, A375, read-out: IC50",17.2 µM
same,IC50,"A-427, A-427, read-out: IC50",11.9 µM
same,IC50,"ACHN, read-out: IC50",15.9 µM
same,IC50,"AN3-CA, AN3 CA, read-out: IC50",11.4 µM
same,IC50,"ASPC1, AsPC-1, read-out: IC50",25.3 µM
same,IC50,"AU565, AU-565, read-out: IC50",14.6 µM
same,IC50,"BT-20, BT-20, read-out: IC50",33.6 µM
same,IC50,"BT-549, BT-549, read-out: IC50",15.2 µM
same,IC50,"BXPC-3, BxPC-3, read-out: IC50",19.3 µM
same,IC50,"C-33-A, C33A, cervix, read-out: pIC50 (converted)",1.74 µM
same,IC50,"C-33-A, C-33 A, read-out: IC50",1.74 µM
same,IC50,"CAL-27, CAL 27, read-out: IC50",15.7 µM
same,IC50,"CCRF-CEM, CCRFCEM, blood, read-out: pIC50 (converted)",0.708 µM
same,IC50,"CCRF-CEM, read-out: IC50",0.708 µM
same,IC50,"COLO 205, COLO 205, read-out: IC50",22.3 µM
same,IC50,"COLO-829, COLO 829, read-out: IC50",17.3 µM
same,IC50,"DLD-1, DLD1, large_intestine, read-out: pIC50 (converted)",13.8 µM
same,IC50,"DLD-1, DLD-1, read-out: IC50",13.8 µM
same,IC50,"DU-145, DU 145, read-out: IC50",25.3 µM
same,IC50,"Daoy, read-out: IC50",13.6 µM
same,IC50,"DoTc2-4510, DoTc2 4510, read-out: IC50",18.1 µM
same,IC50,"FaDu, upper_aerodigestive_tract, read-out: pIC50 (converted)",25.7 µM
same,IC50,"FaDu, read-out: IC50",25.7 µM
same,IC50,"HCT-15, HCT-15, read-out: IC50",11.4 µM
same,IC50,"HCT-116, HCT 116, read-out: IC50",16 µM
same,IC50,"Hs-578T, Hs 578T, read-out: IC50",14.7 µM
same,IC50,"J82, J82, read-out: IC50",19.2 µM
same,IC50,"Jurkat E6.1, Jurkat E6.1, read-out: IC50",0.569 µM
same,IC50,"K562, K-562, read-out: IC50",15.3 µM
same,IC50,"KU812, KU812, read-out: IC50",9.13 µM
same,IC50,"LNCaP, LNCaP FGC, read-out: IC50",91.7 µM
same,IC50,"LS174T, LS 174T, read-out: IC50",20.3 µM
same,IC50,"LoVo, read-out: IC50",16.6 µM
same,IC50,"MCF7, MCF7, read-out: IC50",14.7 µM
same,IC50,"MG-63, MG-63, read-out: IC50",22.7 µM
same,IC50,"MIA PaCa-2, MIA PaCa-2, read-out: IC50",13.1 µM
same,IC50,"MOLT-4, MOLT-4, read-out: IC50",4.07 µM
same,IC50,"MeWo, read-out: IC50",19.5 µM
same,IC50,"NCI-H82, NCI-H82, read-out: IC50",4.84 µM
same,IC50,"NCI-H460, NCI-H460, read-out: IC50",32.5 µM
same,IC50,"OVCAR-3, OVCAR-3, read-out: IC50",13.7 µM
same,IC50,"PA1, ovary, read-out: pIC50 (converted)",2.88 µM
same,IC50,"PA-1, PA-1, read-out: IC50",2.88 µM
same,IC50,"RKO, read-out: IC50",10.1 µM
same,IC50,"RPMI-7951, RPMI-7951, read-out: IC50",14.1 µM
same,IC50,"RT-4, RT4, read-out: IC50",33.4 µM
same,IC50,"SHP77, SHP-77, read-out: IC50",13.8 µM
